According to PubChem BioAssay AID1963866 (Molecular Pharmacology Branch, DTP, NCI, 2024):

Test system: PDC KRAS tumor spheroids with HUVEC/MSC, viability
Assay: Anticancer human tumor 349418-098-R-PDC patient-derived lung adenocarcinoma cell line growth inhibition [KRAS2]
Conditions: for IC50: curve of first compound; for viability, T/C: stronger effect = lower value
Outline: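 KRAS-mutant tumor cells were grown as spheroids with HUVEC endothelial cells and human MSCs as stroma. Targeted agents were tested alone and with KRAS pathway inhibitors. Doses started at or near clinical Cmax, or 10 microM, descending half-log.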

[1] = second compound 0.1 µM, first compound 0.0316 µM
[2] = second compound 0.1 µM, first compound 0.1 µM
[3] = second compound 0.316 µM, first compound 0.0316 µM
[4] = second compound 0.316 µM, first compound 0.1 µM
[5] = second compound 1 µM, first compound 0.0316 µM
[6] = second compound 1 µM, first compound 0.1 µM
[7] = second compound 3.16 µM, first compound 0.0316 µM
[8] = second compound 3.16 µM, first compound 0.1 µM
[9] = second compound 10 µM, first compound 0.0316 µM
[10] = second compound 10 µM, first compound 0.1 µM
[11] = second compound 0.1 µM, first compound 0.316 µM
[12] = second compound 0.1 µM, first compound 1 µM
[13] = second compound 0.1 µM, first compound 3.16 µM
[14] = second compound 0.1 µM, first compound 10 µM
[15] = second compound 0.316 µM, first compound 0.316 µM
[16] = second compound 0.316 µM, first compound 1 µM
[17] = second compound 0.316 µM, first compound 3.16 µM
[18] = second compound 0.316 µM, first compound 10 µM
[19] = second compound 1 µM, first compound 0.316 µM
[20] = second compound 1 µM, first compound 1 µM
[21] = second compound 1 µM, first compound 3.16 µM
[22] = second compound 1 µM, first compound 10 µM
[23] = second compound 3.16 µM, first compound 0.316 µM
[24] = second compound 3.16 µM, first compound 1 µM
[25] = second compound 3.16 µM, first compound 3.16 µM
[26] = second compound 3.16 µM, first compound 10 µM
[27] = second compound 10 µM, first compound 0.316 µM
[28] = second compound 10 µM, first compound 1 µM
[29] = second compound 10 µM, first compound 3.16 µM
[30] = second compound 10 µM, first compound 10 µM
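Also: spheroids exposed to compounds for seven days before readout.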

SMILES | IC50 (second compound 0.1 µM) [nM] | IC50 (second compound 0.316 µM) [nM] | IC50 (second compound 1 µM) [nM] | IC50 (second compound 3.16 µM) [nM] | IC50 (second compound 10 µM) [nM] | viability, T/C [1] [%] | viability, T/C [2] [%] | viability, T/C [3] [%] | viability, T/C [4] [%] | viability, T/C [5] [%] | viability, T/C [6] [%] | viability, T/C [7] [%] | viability, T/C [8] [%] | viability, T/C [9] [%] | viability, T/C [10] [%] | viability, T/C [11] [%] | viability, T/C [12] [%] | viability, T/C [13] [%] | viability, T/C [14] [%] | viability, T/C [15] [%] | other results
Cn1ncnc1[C@H]1c2n[nH]c(=O)c3cc(F)cc(c23)N[C@@H]1c1ccc(F)cc1 + CC1OCC2(CCN(c3cnc(Sc4ccnc(N)c4Cl)c(N)n3)CC2)C1N | > 100 | > 100 | > 100 | > 100 | > 100 | 88.6 | 85.8 | 83.3 | 73.9 | 82.6 | 76 | 73.7 | 74.2 | 62.8 | 61.9 |  |  |  |  |  | viability, T/C (second compound 0.1 µM, first compound 0.000316 µM): 105%; viability, T/C (second compound 0.1 µM, first compound 0.001 µM): 102%; viability, T/C (second compound 0.1 µM, first compound 0.00316 µM): 95.9%; viability, T/C (second compound 0.1 µM, first compound 0.01 µM): 95.7%; viability, T/C (second compound 0.316 µM, first compound 0.000316 µM): 93.5%; viability, T/C (second compound 0.316 µM, first compound 0.001 µM): 97.2%; viability, T/C (second compound 0.316 µM, first compound 0.00316 µM): 95.6%; viability, T/C (second compound 0.316 µM, first compound 0.01 µM): 87.5%; viability, T/C (second compound 1 µM, first compound 0.000316 µM): 95.8%; viability, T/C (second compound 1 µM, first compound 0.001 µM): 93%; viability, T/C (second compound 1 µM, first compound 0.00316 µM): 92.2%; viability, T/C (second compound 1 µM, first compound 0.01 µM): 83.8%; viability, T/C (second compound 3.16 µM, first compound 0.000316 µM): 90.3%; viability, T/C (second compound 3.16 µM, first compound 0.001 µM): 83.1%; viability, T/C (second compound 3.16 µM, first compound 0.00316 µM): 83.3%; viability, T/C (second compound 3.16 µM, first compound 0.01 µM): 79.8%; viability, T/C (second compound 10 µM, first compound 0.000316 µM): 78.9%; viability, T/C (second compound 10 µM, first compound 0.001 µM): 74.4%; viability, T/C (second compound 10 µM, first compound 0.00316 µM): 76.7%; viability, T/C (second compound 10 µM, first compound 0.01 µM): 66.7%
Cn1nccc1Nc1nccc(-c2cc3c(s2)C(C)(C)N(CCN2CCOCC2)C3=O)n1 + CC1OCC2(CCN(c3cnc(Sc4ccnc(N)c4Cl)c(N)n3)CC2)C1N | 54.2 | 44.6 | 32.5 | 36.4 | < 31.6 | 68.8 | 27 | 61.4 | 23.7 | 51.1 | 18.4 | 54.6 | 19.7 | 47.9 | 18.8 | 17.7 | 8.51 | 5.52 | 4.04 | 7.24 | viability, T/C [16]: 6.49%; viability, T/C [17]: 4.43%; viability, T/C [18]: 4.11%; viability, T/C [19]: 8.88%; viability, T/C [20]: 4.35%; viability, T/C [21]: 4.16%; viability, T/C [22]: 4.13%; viability, T/C [23]: 7.87%; viability, T/C [24]: 3.17%; viability, T/C [25]: 2.99%; viability, T/C [26]: 3.09%; viability, T/C [27]: 6.03%; viability, T/C [28]: 2.89%; viability, T/C [29]: 2.98%; viability, T/C [30]: 2.7%
CC(C)NCC(C(=O)N1CCN(c2ncnc3c2C(C)CC3O)CC1)c1ccc(Cl)cc1 (stereo not given) + C=CC(=O)N1CCN(c2nc(=O)n(-c3c(C)ccnc3C(C)C)c3nc(-c4c(O)cccc4F)c(F)cc23)C(C)C1 | 287 | 275 | 184 | 107 | < 31.6 | 101 | 79.6 | 87.2 | 80.5 | 89.1 | 73.1 | 61.1 | 52.9 | 35.1 | 18.2 | 44.7 | 26.6 | 14.2 | 7.87 | 40.6 | viability, T/C [16]: 27%; viability, T/C [17]: 14.1%; viability, T/C [18]: 6.33%; viability, T/C [19]: 28.9%; viability, T/C [20]: 15.6%; viability, T/C [21]: 12.7%; viability, T/C [22]: 5.98%; viability, T/C [23]: 23.3%; viability, T/C [24]: 15.2%; viability, T/C [25]: 9.31%; viability, T/C [26]: 5.92%; viability, T/C [27]: 15.9%; viability, T/C [28]: 9.76%; viability, T/C [29]: 7.72%; viability, T/C [30]: 5.23%
CC(C)NCC(C(=O)N1CCN(c2ncnc3c2C(C)CC3O)CC1)c1ccc(Cl)cc1 (stereo not given) + CNCc1ccccc1-c1csc(C(C)Nc2nc(C)nc3cc(OC)c(OC)cc23)c1 | 257 | 208 | 106 | < 31.6 | < 31.6 | 95 | 88 | 96.5 | 68.6 | 79.1 | 52.3 | 0.09 | 0.11 | 0.08 | 0.08 | 39.6 | 22.7 | 14.1 | 6.42 | 39.3 | viability, T/C [16]: 19.7%; viability, T/C [17]: 12.6%; viability, T/C [18]: 6.01%; viability, T/C [19]: 16.3%; viability, T/C [20]: 9.95%; viability, T/C [21]: 1.69%; viability, T/C [22]: 3.8%; viability, T/C [23]: 0.03%; viability, T/C [24]: 0.03%; viability, T/C [25]: 0.27%; viability, T/C [26]: 0.09%; viability, T/C [27]: 0.07%; viability, T/C [28]: 0.25%; viability, T/C [29]: 0.07%; viability, T/C [30]: 0.13%
